The source of these data is patent publication US6337064B1, “Manganese chelates with high relaxivity in serum” (Dibra S.p.A., priority 1998, dated 2002).

SMILES strings stand for the structures. Like-named read-outs stand apart in the source and are kept apart here.

The nature of data set [1]: Relaxivity in aqueous solution. As to conditions: for Relaxivity r1, aqueous solution: 0.15 M NaCl aqueous solution, 20 MHz, 39° C.; for Relaxivity r1 5 MHz, aqueous solution / Relaxivity r1 10 MHz, aqueous solution: same experimental conditions as Table 1. Type of data set: physicochemical. As for the experimental part: (§1) The relaxivity of the compounds of the invention was measured both in saline solution and in human serum, reconstituted from Seronorm^(R) Human (Nycomed Pharma), lyophilized human serum, and the resulting data are summarized in TABLES 1 and 2.
(§2) TABLE 1 reports the relativity values measured for some compounds of the invention at 20 MHz; the other experimental conditions used are detailed following the table itself.
(§3) TABLE 2 comprises the results obtained from tests carried out under the same experimental conditions as above and in which r1 and r2 relaxivities were measured in serum and in aqueous solution at lower fields, precisely at 5 and 10 MHz. Said data evidence the significant increase in relaxivity obtained in serum already at 5 MHz and are indicative of the potential advantageous use of the compounds of the invention in M.R.I. diagnostic imaging at low fields.

Data set [2] is described as follows: Relaxivity in human serum reconstituted from Seronorm Human. Type of data set: physicochemical. As to conditions: for Relaxivity r1, Seronorm Human: calculated between 0 and 1 mM, 20 MHz, 39° C.; for Relaxivity r1 5 MHz, Seronorm / Relaxivity r1 10 MHz, Seronorm: same experimental conditions as Table 1. Here is the method:
as §1, §2, §3

For data set [3] the following is noted: 40° C.; 20 MHz; aqueous solution containing 20 mol % calcium ascorbate and 3 eq. of Na^+; cited from earlier work.
For data set [4] the following is noted: biodistribution study; Investigative Radiology 1994, 29(2), S249-S250; cited from earlier work.
For data set [5] the following is noted: in the presence of calcium and magnesium ions; MRM 1996, 35, 14-19; cited from earlier work.

As for `[Cl][Mn][Cl]` [MnCl2, reference compound], the “Relaxivity r1, aqueous solution” value in data set [1] (pH 4) is listed as 6.59^(2) mM^−1 s^−1. Moreover, in data set [2] (pH 7.0), the “Relaxivity r1, Seronorm Human” value is reported as 53^(3) mM^−1 s^−1.
On to `C[NH2+]C[C@H](O)[C@@H](O)[C@H](O)[C@H](O)CO.C[NH2+]C[C@H](O)[C@@H](O)[C@H](O)[C@H](O)CO.O=C([O-])CN(CCN(CC(=O)[O-])[C@@H](Cc1ccccc1)C(=O)[O-])[C@@H](Cc1ccccc1)C(=O)[O-].[Mn+2]` [Example 2, Manganese complex of [N,N′-1,2-ethanediylbis [N-(carboxymethyl)-L-phenylalanine]] salified with 1-deoxy-1-(methylamino)-D-glucitol (1:2)], for which, in data set [1] (pH 7.3), the “Relaxivity r1, aqueous solution” value is on record as 3.15^(6) mM^−1 s^−1. Moreover, in data set [1], the “Relaxivity r1 5 MHz, aqueous solution” value was found to be 4.5 mM⁻¹ s⁻¹ and the “Relaxivity r1 10 MHz, aqueous solution” value turned out to be 3.9 mM⁻¹ s⁻¹. In data set [2], the “Relaxivity r1 5 MHz, Seronorm” value was found to be 19.9 mM⁻¹ s⁻¹; the “Relaxivity r1 10 MHz, Seronorm” value was 26.1 mM⁻¹ s⁻¹; the “Relaxivity r1, Seronorm Human” value is reported as 27^(7) mM^−1 s^−1.
In the case of `C[NH2+]C[C@H](O)[C@@H](O)[C@H](O)[C@H](O)CO.C[NH2+]C[C@H](O)[C@@H](O)[C@H](O)[C@H](O)CO.O=C([O-])CN(CCN(CC(=O)[O-])[C@H](Cc1ccccc1)C(=O)[O-])CC(=O)[O-].[Mn+2]` [Example 1, Manganese complex of N-[2-[bis(carboxymethyl)-amino]ethyl]-N-(carboxymethyl)-D-phenylalanine salified with 1-deoxy-1-(methylamino)-D-glucitol (1:2)], in data set [1] (pH 7.3), the “Relaxivity r1, aqueous solution” value is reported as 2.93^6) mM^−1 s^−1. Further, in data set [1], the “Relaxivity r1 5 MHz, aqueous solution” value came out at 4.3 mM⁻¹ s⁻¹ and the “Relaxivity r1 10 MHz, aqueous solution” value stood at 3.7 mM⁻¹ s⁻¹. Moreover, in data set [2], the “Relaxivity r1 5 MHz, Seronorm” value came out at 11.8 mM⁻¹ s⁻¹; the “Relaxivity r1 10 MHz, Seronorm” value was 12.8 mM⁻¹ s⁻¹; the “Relaxivity r1, Seronorm Human” value is on record as 15^(7) mM^−1 s^−1.
In the case of `Cc1ncc(COP(=O)(O)O)c(CN(CCN(CC(=O)[O-])Cc2c(COP(=O)(O)O)cnc(C)c2O)CC(=O)[O-])c1O.[Mn+2].[Na].[Na].[Na]` [Mn-DPDP], the “Relaxivity r1, aqueous solution” value in data set [3] is 2.8^(5) L.mmol^−1.s^−1. The “Stability of the complex in vivo” value in data set [4] is “this complex dissociates, releasing manganese which accumulates in liver, pancreas and kidneys”. For the same molecule, the “Stability of the complex in liver homogenate” value in data set [5] is “dissociation”.
